Experimental data: patent US7807845B2, “Resistance-repellent retroviral protease inhibitors” (priority 2004, dated 2010)

Tests used:
[1] = tested on: HIVmutant10 (16 mutations); test: Antiviral assay in MT-4 cells (MTT), mutant 10 virus; type: cell-based, HIV; conditions: Human immunodeficiency virus 1, MT4, 120 h, read-out: IC50 Mutant 10
Experimental: (§1) MT-4 cells were obtained from the AIDS Research and Reference Reagent Program (ARRRP, Division of AIDS, NIAID, NIH: MT-4 from Dr. D. Richman). Cells were propagated in RPMI 1640 supplemented with 10% fetal bovine serum, 50U of penicillin and 50 μg of streptomycin per ml (Invitrogen, Carlsbad Calif.). The following HIV viruses were used for testing of antiviral potency of compounds: WT=HIVHXB2; recombinant HIVHXB2 virus from drug resistant patient isolates; HIVmutant10 (16 mutations); HIVmutant8 (14 mutations); HIVmutant9 (10 mutations).
(§2) The potency of test compound was determined as previously described (ref 1-3) with minor modifications. MT-4 cells (1.5×10^4/ml) were exposed to 200 50 % tissue culture infective doses (TCID50) of viruses in the presence of various concentrations of test compound in 96 well microtiter plates and incubated at 37° C. for 5 days. 3-(4,5-dimethylthiazol-2-yl)-2,5-diphenytetrazolium bromide (MTT) solution was added to a final concentration of 0.75 mg/ml, and plates were incubated 1 hour. After incubation cells were dissolved in isopropanol/Triton-X 100/HCl (1000:50:25) solution. Absorbance was monitored in a microplate reader (Spectramax, Molecular Devices) at 540 nm and 690 nm. Cytotoxicity of compounds was tested in a similar assay in the absence of virus.

[2] = tested on: HIVmutant8 (14 mutations); test: Antiviral assay in MT-4 cells (MTT), mutant 8 virus; type: cell-based, HIV; conditions: Human immunodeficiency virus 1, MT4, 120 h, read-out: IC50 Mutant 8
Experimental: as §1, §2

mutant HIV PR (Mutant 9) = mutant HIV PR (Mutant 9) (Human immunodeficiency virus type 1 group M subtype B, UniProt P04585); test: HIV PR inhibition assay, Mutant 9; type: biochemical; conditions: read-out: Ki Mutant 9; recombinant mutant HIV PR, fluorogenic substrate, pH 6.5
Experimental: (§3) Expression and purification of WT and mutant HIV PR. Recombinant wild type and mutant HIV PRs were expressed using pET21 vector (Novagen) in E. coli cells, and purified and refolded as described previously (Gulnik et al, 1995). The cells were resuspended in 50 mM tris-HCl buffer, pH 8.0, 25 mM NaCl, 0.2% β-mercaptoethanol (buffer A), sonicated and centrifuged. Inclusion bodies were washed first with buffer A, then with buffer A containing respectively 0.1% Triton X-100, 1 M NaCl, 1 M urea, and finally with buffer A alone. Purified inclusion bodies were solubilized by addition of buffer A containing 8 M urea at room temperature. The solution was clarified by centrifugation and loaded onto 2.6×9.5 cm Q-Sepharose column. Flow-through fractions were collected and dialyzed against 3 changes of refolding buffer, which consists of 25 mM Na-phosphate, pH 7.0, 25 mM NaCl, 0.2% β-mercaptoethanol and 10% glycerol, aliquoted and stored at −80° C.
(§4) Inhibition constants were determined using the fluorogenic substrate ArgGlu(EDANS)[…]DABCYL)Arg (Amichem, USA). HIV Protease was preincubated for 0.5-1 min at ambient temperature on a 96 well plate with different concentrations of inhibitor in 0.05 M sodium phosphate buffer, pH 6.5, containing 20 mM NaCl, 2 mM DTT and 0.01% Tween-20. The reaction was initiated by the addition of substrate. Final enzyme concentration was 2-5 nM for WT and 2-30 nM for mutants. Substrate concentration was 20 uM and DMSO concentration 2%. The increase in fluorescence intensity at the emission maximum of 520 nm (excitation wavelength 340 nm, cut-off filter 495 nm) was monitored as a function of time using a Spectramax Gemini fluorescence plate reader (Molecular Devices, CA USA). The initial rate of hydrolysis was calculated by first-degree polynomial fit using SoftMAX operating software. Data were fitted to the Michaelis-Menten equation for competitive inhibitors. For tight-binding inhibitors the data were fitted by nonlinear regression analysis to the equation V=V0/2Et({[Ki(1+S/Km)+It−Et]^2+4Ki(1+S/Km)Et}^1/2−[Ki(1+S/Km)+It−Et]) (Williams and Morrison, 1979) with the program GraFit, version 5 (Erithacus Software Limited, UK), where V and V0 are initial velocities with and without inhibitor, Km is the Michaelis-Menten constant and S, Et and It are the concentrations of substrate, active enzyme and inhibitor respectively.

wild type HIV PR = target: T1, wild type HIV PR (Human immunodeficiency virus type 1 group M subtype B, UniProt P04585); test: HIV PR inhibition assay, wild type; type: biochemical
T1 construct: Recombinant wild type and mutant HIV PRs were expressed using pET21 vector (Novagen) in E. coli cells; made in house
Experimental: as §3, §4

[3] = tested on: HIVmutant9 (10 mutations); test: Antiviral assay in MT-4 cells (MTT), mutant 9 virus; type: cell-based, HIV; conditions: Human immunodeficiency virus 1, MT4, 120 h, read-out: IC50 Mutant 9
Experimental: as §1, §2

WT=HIVHXB2 = test: Antiviral assay in MT-4 cells (MTT), WT virus; type: cell-based, HIV; conditions: Human immunodeficiency virus 1, MT4, 120 h, HIVHXB2, 5 days
Experimental: as §1, §2

mutant HIV PR (Mutant 8) = mutant HIV PR (Mutant 8) (Human immunodeficiency virus type 1 group M subtype B, UniProt P04585); test: HIV PR inhibition assay, Mutant 8; type: biochemical; conditions: read-out: Ki Mutant 8; recombinant mutant HIV PR, fluorogenic substrate, pH 6.5
Experimental: as §3, §4

[4] = target: mutant HIV PR (Mutant 10) (Human immunodeficiency virus type 1 group M subtype B, UniProt P04585); test: HIV PR inhibition assay, Mutant 10; type: biochemical; conditions: read-out: Ki Mutant 10; recombinant mutant HIV PR, fluorogenic substrate, pH 6.5
Experimental: as §3, §4

Row | Structure (SMILES) | IC50 [1] | IC50 [2] | Ki (mutant HIV PR (Mutant 9)) | Ki (wild type HIV PR) | IC50 [3] | IC50 (WT=HIVHXB2) | Ki (mutant HIV PR (Mutant 8)) | Ki [4]
1 | CCOC(=O)C(NC=C1C(=O)Nc2ccc(S(=O)(=O)N(CC(C)C)CC(O)C(Cc3ccccc3)NC(=O)OC3COC4OCCC34)cc21)C(C)C (centres unmarked) [Compound 133] | 27 nM | 19 nM | 0.4 nM | 0.14 nM | 16 nM | 17 nM | < 0.3 nM | 3.1 nM
2 | CCCN(C=C1C(=O)Nc2ccc(S(=O)(=O)N(CC(C)C)CC(O)C(Cc3ccccc3)NC(=O)OC3COC4OCCC34)cc21)CCC (centres unmarked) [Compound 32, {1-Benzyl-3-[(3-dipropylaminomethylene-2-oxo-2,3-dihydro-1H-indole-5-sulfonyl)-isobutyl-amino]-2-hydroxy-propyl}-carbamic acid hexahydro-furo[2,3-b]furan-3-yl ester] | 58 nM | 24 nM | < 0.1 nM | < 0.1 nM | 12 nM | 10 nM | < 0.3 nM | < 1 nM
3 | CCc1cccc(NC=C2C(=O)Nc3ccc(S(=O)(=O)N(CC(C)C)CC(O)C(Cc4ccccc4)NC(=O)OC4COC5OCCC45)cc32)n1 (centres unmarked) [Compound 112] | 200 nM | 50 nM | 0.17 nM | < 0.1 nM | 30 nM | 7 nM | < 0.3 nM | 6.4 nM
4 | CC(C)CN(CC(O)C(Cc1ccccc1)NC(=O)OC1COC2OCCC12)S(=O)(=O)c1ccc2c(c1)C(=CNCCc1ccccn1)C(=O)N2 (centres unmarked) [Compound 76, [1-Benzyl-2-hydroxy-3-(isobutyl-{2-oxo-3-[(2-pyridin-2-yl-ethylamino)-methylene]-2,3-dihydro-1H-indole-5-sulfonyl}-amino)-propyl]-carbamic acid hexahydro-furo[2,3-b]furan-3-yl ester] | 28 nM | 61 nM | < 0.1 nM | < 0.1 nM | 35 nM | 33 nM | < 0.3 nM | < 1 nM
